Results as given in patent publication US11319305B2, “Pyrimidine sulfamide derivative and preparation method and medical application thereof” (SHIJIAZHUANG SAGACITY NEW DRUG DEVELOPMENT CO., LTD., priority 2017, dated 2022).
pIC50: −log10 of the molar value.

How the values were obtained:
Format in all cases: in vitro ADME
CYP2C9 = target: T1, CYP2C9 (Homo sapiens, UniProt P11712); assay: Human liver microsomal cytochrome P450 isozyme inhibition assay, CYP2C9; conditions: human liver microsomes
T1 construct: Mixed human liver microsomes (HLM) were purchased from Corning Inc; tissue Corning Inc; host or cells: pooled human liver microsomes
T1 sequence (P11712 whole entry): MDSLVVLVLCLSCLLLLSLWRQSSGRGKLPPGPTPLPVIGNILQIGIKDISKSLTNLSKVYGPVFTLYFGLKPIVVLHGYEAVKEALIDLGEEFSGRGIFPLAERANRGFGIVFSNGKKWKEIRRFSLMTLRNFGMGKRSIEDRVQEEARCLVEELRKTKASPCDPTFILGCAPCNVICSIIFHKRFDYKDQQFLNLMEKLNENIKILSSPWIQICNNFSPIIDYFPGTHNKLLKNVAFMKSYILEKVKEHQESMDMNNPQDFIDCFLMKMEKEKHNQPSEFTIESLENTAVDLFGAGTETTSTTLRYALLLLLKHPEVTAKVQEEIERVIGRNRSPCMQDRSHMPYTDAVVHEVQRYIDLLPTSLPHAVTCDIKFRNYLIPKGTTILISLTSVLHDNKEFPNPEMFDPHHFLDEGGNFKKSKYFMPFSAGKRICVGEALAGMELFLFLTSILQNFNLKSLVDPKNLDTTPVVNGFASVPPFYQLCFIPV
Experimental: (§1) Experimental Embodiment 4: Human Liver Microsomal Cytochrome P450 Isozyme Inhibition Assay The purpose of the assay was to evaluate the inhibitory activity of the samples against human liver microsomal cytochrome P450 isozyme (CYP1A2, CYP2C9, CYP2C19, CYP2D6 and CYP3A4) using the 5-in-1 probe substrate of the CYP isozyme. Mixed human liver microsomes (HLM) were purchased from Corning Inc. (Steuben, N.Y., USA) and stored below −80° C. before use. The test compound working solution which has been diluted into serial concentrations was added to an incubation system containing human liver microsomes, probe substrates and circulating system cofactors, and a control containing solvent without the test compound was used as the enzyme activity control (100%). The concentration of the metabolite produced by the probe substrate in the sample was determined using a liquid chromatography-tandem mass spectrometry (LC-MS/MS) method. Nonlinear regression analysis was performed on the average percent activity versus concentration of subjects using SigmaPlot (V.11). The IC50 value was calculated by a three-parameter or four-parameter inverse-logarithmic equation.

[1] = target: T2, bile salt transport pump (BSEP) (Homo sapiens, UniProt O95342); assay: Inhibition test on bile salt transfer pump (BSEP), taurocholic acid uptake in BSEP-Hi5-VT vesicles
T2 construct: purchased Solvo Biotechnology SB-BSEP-Hi5-VT; host or cells: Hi5 insect cells (read from the product name; own knowledge)
T2 sequence (O95342 whole entry): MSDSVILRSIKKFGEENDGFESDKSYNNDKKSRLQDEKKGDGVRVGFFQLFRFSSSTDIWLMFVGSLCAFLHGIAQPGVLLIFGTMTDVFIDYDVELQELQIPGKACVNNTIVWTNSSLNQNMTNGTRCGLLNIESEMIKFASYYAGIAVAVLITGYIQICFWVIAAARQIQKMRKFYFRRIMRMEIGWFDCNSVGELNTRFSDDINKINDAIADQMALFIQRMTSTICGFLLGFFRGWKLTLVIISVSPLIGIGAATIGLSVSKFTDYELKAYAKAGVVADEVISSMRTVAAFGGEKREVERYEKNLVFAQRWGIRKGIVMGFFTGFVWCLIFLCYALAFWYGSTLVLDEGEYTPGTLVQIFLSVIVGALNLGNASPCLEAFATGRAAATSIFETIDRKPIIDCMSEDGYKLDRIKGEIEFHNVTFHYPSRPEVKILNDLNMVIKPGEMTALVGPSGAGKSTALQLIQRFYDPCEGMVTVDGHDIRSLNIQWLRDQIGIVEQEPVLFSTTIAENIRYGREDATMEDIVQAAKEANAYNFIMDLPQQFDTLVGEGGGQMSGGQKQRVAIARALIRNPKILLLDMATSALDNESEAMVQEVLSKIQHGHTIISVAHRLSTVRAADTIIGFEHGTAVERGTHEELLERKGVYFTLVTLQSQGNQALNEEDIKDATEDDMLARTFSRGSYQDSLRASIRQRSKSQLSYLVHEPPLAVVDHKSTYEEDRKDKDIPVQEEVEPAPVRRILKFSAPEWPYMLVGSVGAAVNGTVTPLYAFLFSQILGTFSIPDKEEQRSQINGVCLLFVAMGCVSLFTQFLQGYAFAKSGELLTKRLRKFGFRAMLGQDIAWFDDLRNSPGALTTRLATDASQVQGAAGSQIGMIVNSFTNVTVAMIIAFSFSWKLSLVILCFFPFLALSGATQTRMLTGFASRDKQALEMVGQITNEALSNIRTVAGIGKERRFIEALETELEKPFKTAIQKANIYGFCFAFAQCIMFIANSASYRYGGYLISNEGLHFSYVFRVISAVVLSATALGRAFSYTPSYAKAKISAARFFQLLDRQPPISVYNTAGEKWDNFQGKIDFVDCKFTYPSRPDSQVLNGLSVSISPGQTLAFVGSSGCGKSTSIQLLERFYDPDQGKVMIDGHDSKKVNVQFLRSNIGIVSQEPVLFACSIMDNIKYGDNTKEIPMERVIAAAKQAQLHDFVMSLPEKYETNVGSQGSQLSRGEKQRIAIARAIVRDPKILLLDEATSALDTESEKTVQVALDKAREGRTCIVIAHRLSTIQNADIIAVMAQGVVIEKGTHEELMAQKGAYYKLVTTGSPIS
Experimental: Prepared with buffer A, 8.16 mM ATP and 4.08 μM taurocholic acid were contained in 12 mL buffer A.
Prepared with buffer A, 8.16 mM AMP, 4.08 μM taurocholic acid 12 mL buffer A were contained in buffer A.
A solution containing BSEP-Hi5-VT 5 μg/μL was prepared with buffer A.
The compound was diluted to 100 mM with DMSO; then serially diluted 3-fold for an 11-point dilution; the minimum concentration was 0.169 μM.
Positive reference Glyburide was diluted to 20 mM with DMSO; then serially diluted 2-fold for an 11-point dilution; the minimum concentration was 19.5
0.3 μL of a solution of the compound in DMSO or a diluted DMSO solution were transferred into corresponding wells of the compound plate using ECHO, respectively.
14.7 μL of ATP buffer was added to the compound and the corresponding wells of zero percent effect (ZPE), respectively.
14.7 μL of AMP buffer was added to the corresponding wells of 100% effect (HPE), respectively.
The plate was shaked for 10 minutes at 25° C.
15 μL of BSEP-H15-VT Vesicle solution was added to all wells, respectively, and the plate was shaked for another 40 minutes at 25° C.
6.5 μL 0.5 M ethylenediaminetetraacetic acid (EDTA) solution was added to all wells immediately, followed by addition of 65 μL of buffer B, and the whole reaction was completed.
7.95 μL of liquid was transferred to the filter plate from the compound plate at the end of the reaction using an instrument.
After placing the liquid receiving plate under the filter plate, the liquid was removed using a centrifuge and the receiving plate liquid was discarded.
9.90 μL of buffer B was added to the filter plate. After placing the liquid receiving plate under the filter plate, the liquid was removed using a centrifuge, and the receiving plate liquid was discarded, and filter plate was washed for three times in total.
The filter plate was dried overnight.
On the next day, 80 μL of methanol/water (80/20, volume ratio) solution was added to the filter plate.
The plate was shaked for 15 minutes after the filter plate was attached to the membrane.
A new liquid receiving plate was placed under the filter plate, and the filter plate was centrifuged for 5 minutes, and all liquids in the filter plate were filtrated into the receiving plate.
15 μL of internal standard solution was added to each wells in the liquid receiving plate, and the plate was sealed with a membrane.
The content of taurocholic acid in the receiving plate was detected using LC/MS/MS.
Several concentrations were tested in each experiments. The data were analyzed using Prism to generate a concentration-response curve, and IC50 values of the compounds were calculated.

[2] = test system: human liver microsomal cytochrome P450 isozyme (CYP1A2, CYP2C9, CYP2C19, CYP2D6 and CYP3A4); assay: Human liver microsomal cytochrome P450 isozyme inhibition assay, summary over the main isozymes
Experimental: as §1

Structure (SMILES): COCCNS(=O)(=O)Nc1ncnc(OCCOc2ncc(Br)cn2)c1-c1ccc2c(c1)OCO2 [WX013]
- pIC50 (CYP2C9): < 4.30
- inhibitory effect on the bile salt transport pump (BSEP) (in words) [1]: extremely weak
- pIC50 ([1]; substrate taurocholic acid, read-out: IC50, inhibitory effect on the bile salt transport pump (BSEP)): 4.36
- inhibitory effects on five main isozymes of CYP (in words) [2]: very weak
